Experimental findings from ChEMBL document CHEMBL1201862, “PubChem BioAssay data set” (2004) are described below.

Each structure is given as a SMILES string. Active and inactive are the calls of the source.

Assay [1] addresses T1, 14-3-3 protein gamma (Homo sapiens, UniProt P61981).
T1 sequence (P61981 whole entry): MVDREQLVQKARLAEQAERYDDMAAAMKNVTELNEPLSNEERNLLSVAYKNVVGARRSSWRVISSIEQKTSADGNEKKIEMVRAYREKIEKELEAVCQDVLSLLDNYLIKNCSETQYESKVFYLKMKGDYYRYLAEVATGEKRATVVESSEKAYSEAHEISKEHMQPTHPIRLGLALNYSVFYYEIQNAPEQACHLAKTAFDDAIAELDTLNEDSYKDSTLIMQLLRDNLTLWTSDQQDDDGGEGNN
Briefly: modulators of 14-3-3 gamma client binding – dose response (AID 711). In kind it is functional.

Assay [2] has as its target T2, ORF 73 (Human herpesvirus 8, UniProt O40947).
T2 sequence (O40947 whole entry): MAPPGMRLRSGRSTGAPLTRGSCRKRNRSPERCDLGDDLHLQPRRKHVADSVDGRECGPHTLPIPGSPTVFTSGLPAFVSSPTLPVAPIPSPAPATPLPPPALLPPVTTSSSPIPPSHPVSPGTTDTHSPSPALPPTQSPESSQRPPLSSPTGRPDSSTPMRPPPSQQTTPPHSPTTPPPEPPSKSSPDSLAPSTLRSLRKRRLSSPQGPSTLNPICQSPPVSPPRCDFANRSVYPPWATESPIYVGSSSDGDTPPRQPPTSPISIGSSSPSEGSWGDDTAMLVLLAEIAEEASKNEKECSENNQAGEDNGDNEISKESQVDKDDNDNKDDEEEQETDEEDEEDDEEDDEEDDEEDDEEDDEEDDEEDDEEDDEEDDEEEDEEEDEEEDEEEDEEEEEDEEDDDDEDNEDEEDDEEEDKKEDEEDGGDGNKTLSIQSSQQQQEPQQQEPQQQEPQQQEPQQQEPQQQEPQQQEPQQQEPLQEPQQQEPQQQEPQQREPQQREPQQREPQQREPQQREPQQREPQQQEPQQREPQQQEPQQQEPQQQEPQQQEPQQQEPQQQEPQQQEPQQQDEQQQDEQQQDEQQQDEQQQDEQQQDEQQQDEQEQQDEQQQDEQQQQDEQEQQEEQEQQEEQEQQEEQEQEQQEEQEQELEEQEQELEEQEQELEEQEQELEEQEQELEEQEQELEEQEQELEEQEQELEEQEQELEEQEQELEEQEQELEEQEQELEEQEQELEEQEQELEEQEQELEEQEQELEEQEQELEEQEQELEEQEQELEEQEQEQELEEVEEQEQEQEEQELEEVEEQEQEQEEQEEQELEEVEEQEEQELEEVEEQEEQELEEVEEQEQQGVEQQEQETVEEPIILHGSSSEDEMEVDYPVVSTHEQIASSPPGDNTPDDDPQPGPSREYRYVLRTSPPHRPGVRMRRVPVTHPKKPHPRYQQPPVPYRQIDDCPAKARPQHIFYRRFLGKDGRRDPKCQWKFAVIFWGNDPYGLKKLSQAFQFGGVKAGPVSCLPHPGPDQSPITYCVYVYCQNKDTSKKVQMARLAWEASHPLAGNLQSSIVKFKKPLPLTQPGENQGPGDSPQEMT
In words: inhibitors of C-LANA binding to LBS DNA, dose response, biochemical, fluorescence polarization, cherry-picked samples (AID 504725).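 Also: fluorescence polarization of a labeled DNA duplex reporting LANA DNA binding; potency is for inhibitors that block LANA binding to the DNA.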 More on the design: species or system Human gammaherpesvirus 8.

Assay [3] addresses Keap1/Nrf2 (Homo sapiens, UniProt Q14145). Briefly: Keap1-Nrf2 protein-protein interaction inhibitors, dose response, biochemical, fluorescence polarization, cherry-picked samples (AID 588683). For orientation: Polarisation of emitted light reports the rotation of a fluorescent probe.
Assay [4] in a line: growth suppression of PTEN-null colon cells, dose response, cell-based, HCT116 PTEN knockout (AID 1047).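 Also: HCT116 colon tumor cells with PTEN knocked out; cells exposed to compound for 60 hours before readout; potency for loss of cell viability measured by luminescence.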 Format: functional.
Assay [5] in a line: growth suppression of beta-catenin-knockout colon cells, dose response, cell-based, HCT116, human colon tumor (AID 1045).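 Also: HCT116 colon tumor cells with beta catenin knocked out; cells exposed to compound for 60 hours.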 Format: functional.
The nature of assay [6]: THP-1 cell cytotoxicity, dose response, cytotoxicity control for non-replicating M. tuberculosis project (AID 489025). Format: functional.
The target in assay [7] is T3, Ubiquitin-conjugating enzyme E2 N (Homo sapiens, UniProt P61088).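 Also: Dose-response confirmation in a TR-FRET assay detecting UBC13-driven polyubiquitin chain formation, inhibition measured.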
T3 sequence (P61088 whole entry): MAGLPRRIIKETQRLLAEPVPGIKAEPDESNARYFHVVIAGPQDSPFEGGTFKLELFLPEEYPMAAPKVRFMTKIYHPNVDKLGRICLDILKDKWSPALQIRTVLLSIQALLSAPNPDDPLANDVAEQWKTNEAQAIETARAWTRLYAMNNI
In kind it is functional.

Assay [8] is described as follows: Vero E6 cell cytotoxicity, dose response, cytotoxicity control for non-replicating M. tuberculosis project, secondary assay (AID 492998). Conditions: Vero C1008. Format: functional, VeroE6.
Assay [9] can be described thus: cells. Format: functional.
For assay [10], the system named is A-375. Briefly: A375 melanoma cell viability reduction, dose response, counter-screen for MITF modulator project, cherry-pick samples, set 2 (AID 540335). In kind it is functional, cell-based. As to conditions: Homo sapiens. (A counterscreen serves to expose hits that act by an unwanted route or on another target.)
The subject of assay [11] is HEK293. Briefly: cells. Conditions: Homo sapiens. In kind it is functional, cell-based.
The target of assay [12] is T4, Nuclear receptor subfamily 0 group B member 1 (Homo sapiens, UniProt P51843).
T4 sequence (P51843 whole entry): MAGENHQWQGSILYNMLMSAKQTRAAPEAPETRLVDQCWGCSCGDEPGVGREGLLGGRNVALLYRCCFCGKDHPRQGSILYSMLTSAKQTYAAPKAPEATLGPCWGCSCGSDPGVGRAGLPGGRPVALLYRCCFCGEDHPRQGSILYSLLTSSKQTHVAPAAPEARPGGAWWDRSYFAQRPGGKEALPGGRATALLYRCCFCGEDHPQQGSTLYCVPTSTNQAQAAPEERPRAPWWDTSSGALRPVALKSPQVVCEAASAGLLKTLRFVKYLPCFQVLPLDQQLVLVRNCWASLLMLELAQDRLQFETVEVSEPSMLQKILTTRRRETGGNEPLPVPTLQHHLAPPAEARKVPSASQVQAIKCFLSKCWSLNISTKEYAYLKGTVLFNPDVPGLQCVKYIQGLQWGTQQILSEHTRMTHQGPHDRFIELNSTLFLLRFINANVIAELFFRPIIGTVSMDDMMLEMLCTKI
Briefly: Luminescence-based cell-based high throughput dose response assay for inhibitors of the orphan nuclear receptor subfamily 0, group B, member 1 (DAX1; NR0B1). [Related pubchem assays (depositor defined):AID504766, AID504790]. Format: functional.

The target of assay [13] is T5, DNA repair and recombination protein RAD54-like (Homo sapiens, UniProt Q92698).
T5 sequence (Q92698 whole entry): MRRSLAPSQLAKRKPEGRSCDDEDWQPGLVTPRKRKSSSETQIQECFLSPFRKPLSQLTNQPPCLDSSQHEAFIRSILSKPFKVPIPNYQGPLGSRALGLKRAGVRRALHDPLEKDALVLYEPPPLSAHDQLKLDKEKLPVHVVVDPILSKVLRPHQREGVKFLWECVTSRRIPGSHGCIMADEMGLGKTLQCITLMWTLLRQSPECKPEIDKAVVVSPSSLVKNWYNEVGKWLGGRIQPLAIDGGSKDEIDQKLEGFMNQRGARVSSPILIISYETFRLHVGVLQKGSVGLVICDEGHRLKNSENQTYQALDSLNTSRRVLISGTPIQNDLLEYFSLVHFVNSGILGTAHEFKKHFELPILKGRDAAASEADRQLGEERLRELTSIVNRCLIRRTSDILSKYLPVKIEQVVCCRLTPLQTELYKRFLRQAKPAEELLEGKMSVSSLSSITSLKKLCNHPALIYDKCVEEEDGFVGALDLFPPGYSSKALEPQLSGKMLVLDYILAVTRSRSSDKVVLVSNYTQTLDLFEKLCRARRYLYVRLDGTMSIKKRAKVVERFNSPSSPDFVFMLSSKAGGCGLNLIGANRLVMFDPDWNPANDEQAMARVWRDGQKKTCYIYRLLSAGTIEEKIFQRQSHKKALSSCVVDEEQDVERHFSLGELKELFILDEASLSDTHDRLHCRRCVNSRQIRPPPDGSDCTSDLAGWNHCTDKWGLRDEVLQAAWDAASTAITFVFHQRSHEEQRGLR
Briefly: inhibitors of human RAD54 branch migration, confirmation, biochemical, fluorescence, cherry-picked samples, dose series (AID 651657). In kind it is functional.

Assay [14] deals with HEK293. In words: cells. Conditions: Homo sapiens.
Assay [15] relates to HEK293. In words: cells. As to conditions: Homo sapiens. The source holds these as a separate data set.
Assay [16] addresses E3 ubiquitin-protein ligase Mdm2 (Homo sapiens, UniProt Q00987). Briefly: enhancers of MDM2-luciferase reporter signal, concentration-effect titration, project on inhibitors of MDM2 ubiquitin ligase, cellular assay, luminescent readout, 384-well plate format (AID 1394).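 Also: MDM2 E3 inhibitors raise luminescence so EC50 is for signal enhancement.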 In kind it is functional.
The target in assay [17] is T6, Microphthalmia-associated transcription factor (Homo sapiens, UniProt O75030).
T6 sequence (O75030 whole entry): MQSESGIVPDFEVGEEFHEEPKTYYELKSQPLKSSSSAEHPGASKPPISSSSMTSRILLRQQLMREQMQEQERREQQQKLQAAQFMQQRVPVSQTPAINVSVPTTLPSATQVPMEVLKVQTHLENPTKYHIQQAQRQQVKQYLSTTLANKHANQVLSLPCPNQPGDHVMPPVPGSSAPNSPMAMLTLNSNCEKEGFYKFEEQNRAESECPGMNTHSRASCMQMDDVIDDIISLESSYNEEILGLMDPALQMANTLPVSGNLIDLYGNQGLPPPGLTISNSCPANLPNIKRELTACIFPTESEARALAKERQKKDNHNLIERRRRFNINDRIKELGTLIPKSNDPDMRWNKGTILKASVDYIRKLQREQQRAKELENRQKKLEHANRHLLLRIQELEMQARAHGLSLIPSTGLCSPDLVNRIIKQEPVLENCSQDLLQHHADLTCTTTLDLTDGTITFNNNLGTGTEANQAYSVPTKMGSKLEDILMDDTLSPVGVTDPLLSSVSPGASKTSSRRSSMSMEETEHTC
Briefly: TRPM1 promoter luciferase signal decrease, dose response, MITF inhibitor project, cell-based, SK-MEL-5, cherry-picked, set 3 (AID 493073).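 Also: SK-MEL-5 melanoma cells with luciferase driven by the MITF target TRPM1 promoter.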 In kind it is functional.

Assay [18] in a line: inhibitors of HIV Env-driven cell fusion, dose response, cherry-pick (AID 652057). Format: functional, cell-based.
Assay [19] in a line: CEM21 lymphoblast cell cytotoxicity, dose response, cytotoxicity control for viral fusion inhibitor project, CellTiter-Glo luminescence, cherry-picked (AID 652042).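 Also: potency for signal decrease meaning cytotoxicity.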 Format: functional, cell-based. In general terms: In ATP-based viability assays light output follows the ATP content of the culture.
Assay [20] in a line: ZM109 Env clade C HIV-1 fusion inhibitors, dose response, HeLa effector, CEM target cells, luciferase, cherry-pick (AID 652058). In kind it is functional, cell-based.
Assay [21] can be described thus: off-target signal loss in HeLa-CEM21 co-culture – HeLa F-luc CTL cells, cherry-picked, counter-screen for HIV-1 Env fusion inhibitor project, dose response (AID 652040).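 Also: potency for signal decrease marking cytotoxic or nonspecific inhibition.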 In kind it is functional, cell-based.
The nature of assay [22]: inhibitors of clade B AD8 Env fusion, dose response, cell-based, cherry-pick (AID 652062).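 Also: luciferase signal from cell-cell fusion driven by HIV-1 clade B AD8 Env; potency is for inhibitors of fusion seen as a drop in luminescence.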 Format: functional.

Keap1/Nrf2, sequence (Q16236 whole entry): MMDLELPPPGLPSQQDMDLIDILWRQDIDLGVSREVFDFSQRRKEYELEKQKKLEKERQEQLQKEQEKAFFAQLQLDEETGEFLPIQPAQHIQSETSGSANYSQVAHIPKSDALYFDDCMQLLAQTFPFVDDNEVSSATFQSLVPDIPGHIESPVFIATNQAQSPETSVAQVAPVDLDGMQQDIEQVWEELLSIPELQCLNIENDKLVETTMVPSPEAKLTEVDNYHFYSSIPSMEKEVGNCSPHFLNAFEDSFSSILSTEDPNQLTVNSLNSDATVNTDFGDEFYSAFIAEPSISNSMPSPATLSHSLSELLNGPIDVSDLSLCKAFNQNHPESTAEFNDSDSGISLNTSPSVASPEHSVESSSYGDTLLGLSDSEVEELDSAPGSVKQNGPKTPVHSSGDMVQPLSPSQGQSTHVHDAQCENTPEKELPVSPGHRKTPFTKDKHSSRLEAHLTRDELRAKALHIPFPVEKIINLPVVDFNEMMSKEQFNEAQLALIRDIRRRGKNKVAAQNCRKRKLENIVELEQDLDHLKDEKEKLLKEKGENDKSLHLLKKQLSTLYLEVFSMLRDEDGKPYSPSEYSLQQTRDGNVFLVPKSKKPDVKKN
Keap1/Nrf2, sequence (Q14145 whole entry): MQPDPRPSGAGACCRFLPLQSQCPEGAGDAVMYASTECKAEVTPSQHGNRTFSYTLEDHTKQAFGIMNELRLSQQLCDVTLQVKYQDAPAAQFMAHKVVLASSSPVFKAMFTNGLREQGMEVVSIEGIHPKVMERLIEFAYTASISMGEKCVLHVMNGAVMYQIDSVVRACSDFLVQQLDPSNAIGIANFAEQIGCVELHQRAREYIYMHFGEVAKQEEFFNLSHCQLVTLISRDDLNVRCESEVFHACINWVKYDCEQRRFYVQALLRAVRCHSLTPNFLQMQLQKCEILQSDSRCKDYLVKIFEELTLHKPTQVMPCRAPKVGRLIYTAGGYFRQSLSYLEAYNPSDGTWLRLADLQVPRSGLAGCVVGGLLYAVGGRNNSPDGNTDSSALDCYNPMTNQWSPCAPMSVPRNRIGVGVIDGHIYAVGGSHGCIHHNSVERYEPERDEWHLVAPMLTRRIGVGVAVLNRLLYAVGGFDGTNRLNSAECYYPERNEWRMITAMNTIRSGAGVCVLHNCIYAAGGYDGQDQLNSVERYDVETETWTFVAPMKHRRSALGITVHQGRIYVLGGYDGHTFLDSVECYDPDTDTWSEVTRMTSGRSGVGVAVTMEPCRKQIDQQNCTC
E3 ubiquitin-protein ligase Mdm2, sequence (Q00987 whole entry): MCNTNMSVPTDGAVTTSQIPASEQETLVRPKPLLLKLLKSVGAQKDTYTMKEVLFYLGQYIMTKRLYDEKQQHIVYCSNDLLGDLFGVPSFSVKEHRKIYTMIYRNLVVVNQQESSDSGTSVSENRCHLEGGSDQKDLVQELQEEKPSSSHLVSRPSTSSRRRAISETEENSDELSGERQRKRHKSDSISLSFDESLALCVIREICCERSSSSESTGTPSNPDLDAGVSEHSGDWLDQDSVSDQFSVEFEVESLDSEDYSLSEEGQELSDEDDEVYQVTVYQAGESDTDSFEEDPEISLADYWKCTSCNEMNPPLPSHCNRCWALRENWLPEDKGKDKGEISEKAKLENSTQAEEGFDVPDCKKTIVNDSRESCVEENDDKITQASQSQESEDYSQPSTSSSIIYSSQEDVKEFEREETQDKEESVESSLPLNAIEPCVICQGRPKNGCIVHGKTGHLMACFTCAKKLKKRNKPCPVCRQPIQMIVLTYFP

Regarding `O=C(O)c1ccccc1C1=Nc2ccc(O)cc2Oc2cc(O)ccc21`, the IC50 in assay [1] is 5.02 µM (active). Further, the AC50 in [2] was 5.76 µM (active); in [3] it was 4.97 µM (active).

Turning to `Cc1ccc2nc(N(CCCN(C)C)C(=O)c3ccc4c(c3)CCCC4)sc2c1`, the EC50 is 15.2 µM (active) in [4] and 12.1 µM (active) in assay [5]. Moreover, the CC50 in assay [6] was 16.5 µM (active); in assay [8] it was > 20 µM (active). Moreover, the results for the IC50 in [7] and in assay [9] were > 20 µM (inactive) and 22.8 µM (active), respectively. The AC50 in assay [10] is 19.7 µM (active).

As for `CCCN(CCC)CCCNC(=O)c1cc2c(=O)n(C)c3ccccc3c2n1C`, the IC50 was 24.7 µM (inactive) in [11] and > 67.5 µM (inactive) in assay [12]. Besides, the AC50 in assay [13] is 36.8 µM (active).

With `Cc1ccc(CCNC(=O)CC2Oc3ccc(C)cc3NC2=O)cc1` (centres undefined), the IC50 in assay [11] and in assay [12] was > 67.5 µM (inactive) in each case.

Take `COc1ccc(C2CC(C(F)(F)F)n3ncc(C(=O)NCC4CCCO4)c3N2)cc1OC` (centres undefined): the EC50 in assay [14] and in assay [15] was > 59.6 µM (inactive) in each case.

For `O=C1NC(=O)N(CCc2ccc(F)cc2)C(=O)/C1=C\C=C\c1ccccc1`, in assay [16], the EC50 was 0.13 µM (not active). Further, the AC50 in assay [17] was 8.26 µM (active); in assay [10], 33.6 µM (active).

For `Fc1ccc(Nc2nc(-c3cccnc3)cs2)cc1`, the IC50 in assay [11] and in assay [12] was > 67.5 µM (inactive) in each case.

As to `COc1ccc(CC(N)c2csc(NC(=O)Nc3ccccc3Cc3ccccc3)n2)cc1` (centres undefined), the AC50 in [18] was < 0.26 µM (active); in assay [19], 12.4 µM (active); in assay [20] it was 0.304 µM (active); in [21] it was 0.381 µM (active); in [22], 0.832 µM (active). The EC50 in assay [14] and in [15] was > 59.7 µM (inactive) each time.

A word on the IC50: it is the point on the concentration scale where inhibition reaches its midpoint. The term AC50 denotes the concentration at which the activity in the assay is half-maximal. Broadly, the EC50 is the concentration at which the effect is half-maximal. A word on the CC50: it is the concentration at which the toxic effect on the cells reaches its halfway point.
